# According to ChEMBL document CHEMBL1773009, “Red-fluorescent argininamide-type NPY Y1 receptor antagonists as pharmacological tools” (Bioorg Med Chem, 2011):
# Legend:
# [1] = biological target: T1, Neuropeptide Y receptor type 1 (Homo sapiens) (UniProt P25929); test: Antagonist activity at Y1R in human HEL cells assessed as inhibition of pNPY induced [Ca2+] mobilisation; assay type: functional, cell-based
# T1 sequence (whole entry): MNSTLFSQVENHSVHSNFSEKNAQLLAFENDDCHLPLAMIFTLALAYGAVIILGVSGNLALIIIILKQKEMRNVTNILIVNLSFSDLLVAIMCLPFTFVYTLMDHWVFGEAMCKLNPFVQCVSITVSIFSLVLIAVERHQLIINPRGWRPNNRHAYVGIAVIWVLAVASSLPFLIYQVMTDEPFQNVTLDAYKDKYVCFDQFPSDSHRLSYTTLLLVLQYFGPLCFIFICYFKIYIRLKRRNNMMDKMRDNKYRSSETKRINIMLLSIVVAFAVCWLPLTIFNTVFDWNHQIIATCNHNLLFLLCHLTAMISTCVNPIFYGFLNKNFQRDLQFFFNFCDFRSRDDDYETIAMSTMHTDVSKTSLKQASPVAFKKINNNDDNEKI
# [2] = biological target: T2, Neuropeptide Y receptor type 1 (Homo sapiens, UniProt P25929); test: Displacement of [3H]-UR-MK114 from Y1R in human SK-N-MC cells; assay type: cell-based
# T2 sequence (P25929 whole entry): T1 sequence (whole entry)
# [3] = Chemical stability of the compound in DMSO at below 0 degC; assay type: physicochemical
Kb [1],Ki [2],Stability [3],SMILES
510 nM,38 nM,,N=C(N)N(CCC[C@@H](NC(=O)C(c1ccccc1)c1ccccc1)C(=O)NCc1ccc(O)cc1)C(=O)NCCCCN
8 nM,130 nM,12 months,Cc1cc(/C=C/C=C2\N(C)c3ccc4ccccc4c3C2(C)C)cc(C)[n+]1CCOCCOCCNC(=O)CCCCC(=O)/N=C(/N)NCCC[C@@H](NC(=O)C(c1ccccc1)c1ccccc1)C(=O)NCc1ccc(O)cc1.O=C([O-])C(F)(F)F
,29 nM,12 months,Cc1cc(/C=C/c2cc3c4c(c2)CCCN4CCC3)cc(C)[n+]1CCCCCC(=O)/N=C(/N)NCCC[C@@H](NC(=O)C(c1ccccc1)c1ccccc1)C(=O)NCc1ccc(O)cc1.O=C([O-])C(F)(F)F
11 nM,38 nM,12 months,Cc1cc(/C=C/c2cc3c4c(c2)CCCN4CCC3)cc(C)[n+]1CCCNC(=O)CCCC(=O)/N=C(/N)NCCC[C@@H](NC(=O)C(c1ccccc1)c1ccccc1)C(=O)NCc1ccc(O)cc1.O=C([O-])C(F)(F)F
95 nM,,,NCCCCCC(=O)/N=C(/N)NCCC[C@@H](NC(=O)C(c1ccccc1)c1ccccc1)C(=O)NCc1ccc(O)cc1
4.1 nM,97 nM,12 months,Cc1cc(/C=C/c2cc3c4c(c2)CCCN4CCC3)cc(C)[n+]1CCOCCOCCOCCC(=O)/N=C(/N)NCCC[C@@H](NC(=O)C(c1ccccc1)c1ccccc1)C(=O)NCc1ccc(O)cc1.O=C([O-])C(F)(F)F
6.8 nM,96 nM,12 months,Cc1cc(/C=C/C=C2\N(C)c3ccc4ccccc4c3C2(C)C)cc(C)[n+]1CCOCCOCCNC(=O)CCCC(=O)/N=C(/N)NCCC[C@@H](NC(=O)C(c1ccccc1)c1ccccc1)C(=O)NCc1ccc(O)cc1.O=C([O-])C(F)(F)F
0.6 nM,100 nM,12 months,Cc1cc(/C=C/c2cc3c4c(c2)CCCN4CCC3)cc(C)[n+]1CCN(CCNC(=O)CCCCCCC(=O)/N=C(\N)NCCC[C@@H](NC(=O)C(c1ccccc1)c1ccccc1)C(=O)NCc1ccc(O)cc1)CCNC(=O)CCCCCCC(=O)/N=C(\N)NCCC[C@@H](NC(=O)C(c1ccccc1)c1ccccc1)C(=O)NCc1ccc(O)cc1.O=C([O-])C(F)(F)F
7.6 nM,150 nM,12 months,Cc1cc(/C=C/C=C/c2ccc(N(C)C)cc2)cc(C)[n+]1CCCCNC(=O)/N=C(/N)NCCC[C@@H](NC(=O)C(c1ccccc1)c1ccccc1)C(=O)NCc1ccc(O)cc1.O=C([O-])C(F)(F)F

# Continued, compound first:
SMILES,Kb [1],Ki [2],Stability [3]
CN(C)c1ccc(/C=C/C=C/c2sc3ccccc3[n+]2CCCC(=O)ON2C(=O)CCC2=O)cc1.O=C([O-])C(F)(F)F,,,12 months
Cc1cc(/C=C/C=C/c2ccc(N(C)C)cc2)cc(C)[n+]1CCCCCC(=O)/N=C(/N)NCCC[C@@H](NC(=O)C(c1ccccc1)c1ccccc1)C(=O)NCc1ccc(O)cc1.O=C([O-])C(F)(F)F,3.7 nM,50 nM,12 months
CN(C)c1ccc(/C=C/C=C/c2sc3ccccc3[n+]2CCCC(=O)NCCNC(=O)CCCC(=O)/N=C(/N)NCCC[C@@H](NC(=O)C(c2ccccc2)c2ccccc2)C(=O)NCc2ccc(O)cc2)cc1.O=C([O-])C(F)(F)F,2.4 nM,42 nM,12 months
NCCCCCC(=O)NC(N)=NCCC[C@@H](NC(=O)C(c1ccccc1)c1ccccc1)C(=O)NCc1ccc(O)cc1,,19 nM,
Cc1cc(/C=C/c2cc3c4c(c2)CCCN4CCC3)cc(C)[n+]1CCCCNC(=O)/N=C(/N)NCCC[C@@H](NC(=O)C(c1ccccc1)c1ccccc1)C(=O)NCc1ccc(O)cc1.O=C([O-])C(F)(F)F,7.2 nM,140 nM,12 months
CN(C)c1ccc(/C=C/C=C/c2sc3ccccc3[n+]2CCCC(=O)O)cc1.O=C([O-])C(F)(F)F,,,12 months
NCCCCNC(=O)/N=C(/N)NCCC[C@@H](NC(=O)C(c1ccccc1)c1ccccc1)C(=O)NCc1ccc(O)cc1,16 nM,4.3 nM,
